The supplement of paper PMC11451515

Legend:
Conditions in all cases: 48 h
[1] = system: NOMO1; experiment: cell viability relative to DMSO control; higher = less cytotoxic
Outline: (§1)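 In 1536-well plates, 5 μl of leukemia cells were seeded per well: 500 cells/well for NOMO1 or SEM and 1000 cells/well for P12-Ichikawa. Each line had first been adapted for at least four passages in each medium. Library compounds in DMSO were pin-dosed at 11 threefold concentrations between 47 μM and 0.79 nM, and CellTiter-Glo One luminescence was read after 48 h at 37°C. Viability is a per-plate percentage relative to DMSO wells, with cell-free wells as background.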

[2] = system: P12-Ichikawa; experiment: as above
Outline: as §1

[3] = system: SEM cells; experiment: as above
Outline: as §1

[4] = system: NOMO1; experiment: AUC of viability dose-response curve (% viability x log10 dose units); higher = less sensitive
Outline: (§2)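 Leukemia cells adapted to each medium were seeded in 1536-well plates (500 or 1000 cells/well) and given library compounds in DMSO for 48 h at 37°C. The 11 threefold doses spanned 47 μM to 0.79 nM, and CellTiter-Glo One luminescence was normalised per plate to DMSO and cell-free wells before four-parameter log-logistic fitting on log10 dose. Area under the curve was integrated with the trapezoidal rule, scaling curves above full viability and removing curves that failed quality control.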

[5] = system: P12-Ichikawa; experiment: as above
Outline: as §2

[6] = system: SEM cells; experiment: as above
Outline: as §2

[7] = HPLM + 10% dialyzed FBS, 0.000781 µM
[8] = HPLM + 10% dialyzed FBS, 0.00234 µM
[9] = HPLM + 10% dialyzed FBS, 0.00702 µM
[10] = HPLM + 10% dialyzed FBS, 0.0211 µM
[11] = HPLM + 10% dialyzed FBS, 0.0632 µM
[12] = HPLM + 10% dialyzed FBS, 0.19 µM
[13] = HPLM + 10% dialyzed FBS, 0.569 µM
[14] = HPLM + 10% dialyzed FBS, 1.71 µM
[15] = HPLM + 10% dialyzed FBS, 5.12 µM
[16] = HPLM + 10% dialyzed FBS, 15.4 µM
[17] = HPLM + 10% dialyzed FBS, 46.1 µM
[18] = RPMI 5 mM glucose + 10% FBS, 0.000781 µM
[19] = RPMI 5 mM glucose + 10% FBS, 0.00234 µM
[20] = RPMI 5 mM glucose + 10% FBS, 0.00702 µM
[21] = RPMI 5 mM glucose + 10% FBS, 0.0211 µM
[22] = RPMI 5 mM glucose + 10% FBS, 0.0632 µM
[23] = RPMI 5 mM glucose + 10% FBS, 0.19 µM
[24] = RPMI 5 mM glucose + 10% FBS, 0.569 µM
[25] = RPMI 5 mM glucose + 10% FBS, 1.71 µM
[26] = RPMI 5 mM glucose + 10% FBS, 5.12 µM
[27] = RPMI 5 mM glucose + 10% FBS, 15.4 µM
[28] = RPMI 5 mM glucose + 10% FBS, 46.1 µM
[29] = RPMI 5 mM glucose + 10% dialyzed FBS, 0.000781 µM
[30] = RPMI 5 mM glucose + 10% dialyzed FBS, 0.00234 µM
[31] = RPMI 5 mM glucose + 10% dialyzed FBS, 0.00702 µM
[32] = RPMI 5 mM glucose + 10% dialyzed FBS, 0.0211 µM
[33] = RPMI 5 mM glucose + 10% dialyzed FBS, 0.0632 µM
[34] = RPMI 5 mM glucose + 10% dialyzed FBS, 0.19 µM
[35] = RPMI 5 mM glucose + 10% dialyzed FBS, 0.569 µM
[36] = RPMI 5 mM glucose + 10% dialyzed FBS, 1.71 µM
[37] = RPMI 5 mM glucose + 10% dialyzed FBS, 5.12 µM
[38] = RPMI 5 mM glucose + 10% dialyzed FBS, 15.4 µM
[39] = RPMI 5 mM glucose + 10% dialyzed FBS, 46.1 µM
[40] = RPMI 5 mM glucose + 10% dialyzed FBS

CN[C@@H](C)C(=O)N[C@H]1CCCC[C@H]2CC[C@@H](C(=O)N[C@@H](c3ccccc3)c3cn(CCCCc4ccc(CCCCn5cc([C@@H](NC(=O)[C@@H]6CC[C@@H]7CCCC[C@H](NC(=O)[C@H](C)NC)C(=O)N76)c6ccccc6)nn5)cc4)nn3)N2C1=O
cell viability [1, 7]: 82.8%
cell viability [1, 8]: 79.3%
cell viability [1, 9]: 56%
cell viability [1, 10]: 61%
cell viability [1, 11]: 42.3%
cell viability [1, 12]: 54.4%
cell viability [1, 13]: 50.6%
cell viability [1, 14]: 47.9%
cell viability [1, 15]: 48%
cell viability [1, 16]: 27.5%
cell viability [1, 17]: 33.4%
cell viability [1, 18]: 85.6%
cell viability [1, 19]: 82.4%
cell viability [1, 20]: 80.8%
cell viability [1, 21]: 87.9%
cell viability [1, 22]: 48.4%
cell viability [1, 23]: 61.5%
cell viability [1, 24]: 74%
cell viability [1, 25]: 70.8%
cell viability [1, 26]: 51.8%
cell viability [1, 27]: 51.2%
cell viability [1, 28]: 57.1%
cell viability [1, 29]: 75.9%
cell viability [1, 30]: 81.6%
cell viability [1, 31]: 84.8%
cell viability [1, 32]: 64.9%
cell viability [1, 33]: 65.5%
cell viability [1, 34]: 72.2%
cell viability [1, 35]: 53.6%
cell viability [1, 36]: 52.2%
cell viability [1, 37]: 42.6%
cell viability [1, 38]: 54.7%
cell viability [1, 39]: 34.2%
cell viability [2, 7]: 103%
cell viability [2, 8]: 101%
cell viability [2, 9]: 99.3%
cell viability [2, 10]: 95.4%
cell viability [2, 11]: 102%
cell viability [2, 12]: 99.8%
cell viability [2, 13]: 94.8%
cell viability [2, 14]: 104%
cell viability [2, 15]: 96.3%
cell viability [2, 16]: 96.8%
cell viability [2, 17]: 94.7%
cell viability [2, 18]: 98.6%
cell viability [2, 19]: 104%
cell viability [2, 20]: 92%
cell viability [2, 21]: 106%
cell viability [2, 22]: 92.8%
cell viability [2, 23]: 99.7%
cell viability [2, 24]: 115%
cell viability [2, 25]: 97.9%
cell viability [2, 26]: 96.2%
cell viability [2, 27]: 97.1%
cell viability [2, 28]: 79.9%
cell viability [2, 29]: 90.8%
cell viability [2, 30]: 110%
cell viability [2, 31]: 94.7%
cell viability [2, 32]: 84.7%
cell viability [2, 33]: 93%
cell viability [2, 34]: 101%
cell viability [2, 35]: 97.3%
cell viability [2, 36]: 98%
cell viability [2, 37]: 92.1%
cell viability [2, 38]: 93.5%
cell viability [2, 39]: 72.9%
cell viability [3, 7]: 73.5%
cell viability [3, 8]: 96.1%
cell viability [3, 9]: 90.5%
cell viability [3, 10]: 100%
cell viability [3, 11]: 90.5%
cell viability [3, 12]: 89.2%
cell viability [3, 13]: 88.1%
cell viability [3, 14]: 91%
cell viability [3, 15]: 92.2%
cell viability [3, 16]: 103%
cell viability [3, 17]: 69.2%
cell viability [3, 18]: 90.3%
cell viability [3, 19]: 97.9%
cell viability [3, 20]: 94.9%
cell viability [3, 21]: 95.6%
cell viability [3, 22]: 83.4%
cell viability [3, 23]: 89.5%
cell viability [3, 24]: 82.2%
cell viability [3, 25]: 87.2%
cell viability [3, 26]: 94.8%
cell viability [3, 27]: 85%
cell viability [3, 28]: 35.3%
cell viability [3, 29]: 95.8%
cell viability [3, 30]: 90.5%
cell viability [3, 31]: 82%
cell viability [3, 32]: 95.2%
cell viability [3, 33]: 99.4%
cell viability [3, 34]: 86.8%
cell viability [3, 35]: 82.3%
cell viability [3, 36]: 95.3%
cell viability [3, 37]: 82.4%
cell viability [3, 38]: 84.4%
cell viability [3, 39]: 54.4%
AUC of viability dose-response curve ([4]; HPLM + 10% dialyzed FBS): 250
AUC of viability dose-response curve ([4]; RPMI 5 mM glucose + 10% FBS): 325
AUC of viability dose-response curve [4, 40]: 297
AUC of viability dose-response curve ([5]; HPLM + 10% dialyzed FBS): 465
AUC of viability dose-response curve ([5]; RPMI 5 mM glucose + 10% FBS): 471
AUC of viability dose-response curve [5, 40]: 450
AUC of viability dose-response curve ([6]; HPLM + 10% dialyzed FBS): 431
AUC of viability dose-response curve ([6]; RPMI 5 mM glucose + 10% FBS): 417
AUC of viability dose-response curve [6, 40]: 418

CC1=CC2=C(O1)C(=C3OC(=O)\C=C(C)/C3=C2)C
cell viability [1, 7]: 79.8%
cell viability [1, 8]: 98.7%
cell viability [1, 9]: 90.9%
cell viability [1, 10]: 114%
cell viability [1, 11]: 104%
cell viability [1, 12]: 123%
cell viability [1, 13]: 125%
cell viability [1, 14]: 121%
cell viability [1, 15]: 95.2%
cell viability [1, 16]: 124%
cell viability [1, 17]: 116%
cell viability [1, 18]: 114%
cell viability [1, 19]: 102%
cell viability [1, 20]: 112%
cell viability [1, 21]: 115%
cell viability [1, 22]: 125%
cell viability [1, 23]: 108%
cell viability [1, 24]: 114%
cell viability [1, 25]: 102%
cell viability [1, 26]: 113%
cell viability [1, 27]: 106%
cell viability [1, 28]: 106%
cell viability [1, 29]: 91.2%
cell viability [1, 30]: 92.2%
cell viability [1, 31]: 99.8%
cell viability [1, 32]: 102%
cell viability [1, 33]: 107%
cell viability [1, 34]: 98%
cell viability [1, 35]: 112%
cell viability [1, 36]: 105%
cell viability [1, 37]: 114%
cell viability [1, 38]: 102%
cell viability [1, 39]: 114%
cell viability [2, 7]: 105%
cell viability [2, 8]: 116%
cell viability [2, 9]: 113%
cell viability [2, 10]: 109%
cell viability [2, 11]: 113%
cell viability [2, 12]: 111%
cell viability [2, 13]: 117%
cell viability [2, 14]: 111%
cell viability [2, 15]: 108%
cell viability [2, 16]: 102%
cell viability [2, 17]: 99.6%
cell viability [2, 18]: 89.6%
cell viability [2, 19]: 107%
cell viability [2, 20]: 105%
cell viability [2, 21]: 106%
cell viability [2, 22]: 103%
cell viability [2, 23]: 107%
cell viability [2, 24]: 118%
cell viability [2, 25]: 106%
cell viability [2, 26]: 107%
cell viability [2, 27]: 102%
cell viability [2, 28]: 96.8%
cell viability [2, 29]: 102%
cell viability [2, 30]: 112%
cell viability [2, 31]: 110%
cell viability [2, 32]: 111%
cell viability [2, 33]: 113%
cell viability [2, 34]: 115%
cell viability [2, 35]: 110%
cell viability [2, 36]: 115%
cell viability [2, 37]: 104%
cell viability [2, 38]: 105%
cell viability [2, 39]: 86.8%
cell viability [3, 7]: 70.2%
cell viability [3, 8]: 81.2%
cell viability [3, 9]: 86.8%
cell viability [3, 10]: 88.7%
cell viability [3, 11]: 84%
cell viability [3, 12]: 84.5%
cell viability [3, 13]: 83.8%
cell viability [3, 14]: 92.5%
cell viability [3, 15]: 90.6%
cell viability [3, 16]: 88.9%
cell viability [3, 17]: 74.1%
cell viability [3, 18]: 72%
cell viability [3, 19]: 91.5%
cell viability [3, 20]: 93.7%
cell viability [3, 21]: 96.8%
cell viability [3, 22]: 86.7%
cell viability [3, 23]: 103%
cell viability [3, 24]: 98.3%
cell viability [3, 25]: 103%
cell viability [3, 26]: 105%
cell viability [3, 27]: 92.2%
cell viability [3, 28]: 91%
cell viability [3, 29]: 89%
cell viability [3, 30]: 100%
cell viability [3, 31]: 94.8%
cell viability [3, 32]: 102%
cell viability [3, 33]: 93.4%
cell viability [3, 34]: 107%
cell viability [3, 35]: 109%
cell viability [3, 36]: 104%
cell viability [3, 37]: 121%
cell viability [3, 38]: 111%
cell viability [3, 39]: 105%
AUC of viability dose-response curve ([4]; HPLM + 10% dialyzed FBS): 446
AUC of viability dose-response curve ([4]; RPMI 5 mM glucose + 10% FBS): 466
AUC of viability dose-response curve [4, 40]: 451
AUC of viability dose-response curve ([5]; HPLM + 10% dialyzed FBS): 468
AUC of viability dose-response curve ([5]; RPMI 5 mM glucose + 10% FBS): 469
AUC of viability dose-response curve [5, 40]: 468
AUC of viability dose-response curve ([6]; HPLM + 10% dialyzed FBS): 404
AUC of viability dose-response curve ([6]; RPMI 5 mM glucose + 10% FBS): 453
AUC of viability dose-response curve [6, 40]: 447
